{
  "source": "patent US20160271513A1",
  "about": "“DRYING TECHNIQUES FOR MICROFLUIDIC AND OTHER SYSTEMS” (PRESIDENT AND FELLOWS OF HARVARD COLLEGE, priority 2013, published 2016)",
  "key": {"[1]": {"details": "room temperature", "protocol": "To calculate the time available for crystalline nuclei to form, the saturation concentration of NaCl was measured in water at room temperature to be 6.3 mol/l."}, "[2]": {"experiment": "Structure and storage stability of spray-dried drug nanoparticles by X-ray diffraction", "format": "physicochemical", "description": "While the characteristic size below which particles were entirely amorphous is system-specific, the suppression of nucleation in small droplets relies on a generally applicable physical principle. […] To test this expectation, the structure of spray-dried clotrimazole, estradiol, and danazol was examined using X-ray diffraction (XRD). To keep the nucleation time the same, they were dissolved at 10% of their saturation concentration. In agreement with the above, these spray-dried drug nanoparticles were amorphous.\nProduction of amorphous drugs may require the addition of excipients. However, despite the presence of excipients, these drugs tend to crystallize with time leading to a change in their dissolution kinetics; this prevents their application in industry. […] These drugs all had glass transition temperatures, Tg, above room temperature; they were therefore glasses at room temperature.\nXRD. X-ray diffraction was performed on spray-dried nanoparticles collected onto a one-side polished (100) Si wafer for 11 h. Measurements were acquired on a XDS2000 instrument (Scintac Inc.) using a Cu Kα (K alpha) source with a wavelength λ=0.154056 nm. The angle 2θ was varied between 2 and 70° at a rate of 1°/min.\nIt was expected to crystallize over time if stored at room temperature even if it is initially fully amorphous.\nTo test if the nebulator also allowed production of amorphous nanoparticles from materials with a Tg […] room temperature, which would be a glass at room temperature, clotrimazole, estradiol, and danazol, all poorly water soluble drugs with Tgs above 20° C., were spry dried. The size of the spray dried nanoparticles was determined by the initial solute concentration and the initial drop size. To ensure similar sizes of the spray dried nanoparticles, the initial solute concentration was fixed to 5 mg/ml. […] Thus, the nebulator allowed formulation of poorly water soluble drugs as amorphous nanoparticles.\nTo ease the handling drugs, fenofibrate was co-spray dried with different types of excipients. […] Four different types of Pluronics were compared: F68 and F127 are solids at room temperature and Pluronics P84 and P104 are pastes at room temperature.\nBy analogy to Pluronics, drugs spray dried from solutions containing equal weights of drugs and excipients were crystalline. By contrast, increasing the weight fraction of PVP five-fold results in XRD-amorphous danazol nanoparticles, in agreement to danazol nanoparticles formulated using the microfluidic spray drier.\nTo maintain the stability of spray dried amorphous nanoparticles and facilitate their handling by embedding them in an excipient matrix, PVP was deposited on a Si-wafer and subsequently drugs were spray dried into the PVP matrix. […] However, because excipients were not required to make the drug amorphous but rather to ease their handling, this procedure is generally applicable to the formulation of many different types of drugs, by contrast to the solid dispersions where the appropriate excipients must be selected for each system individually. Thus, the nebulator used in this example allowed the formulation of amorphous drug nanoparticles that optionally could be sprayed into an excipient matrix to facilitate their handling."}, "[3]": {"experiment": "Crystalline fraction of spray-dried nanoparticles by differential scanning calorimetry", "format": "physicochemical", "description": "The size of inorganic nanoparticles can influence their structure.\nDSC. Differential scanning calorimetry was performed on spray-dried nanoparticles that are collected in an aluminium based Tzero DSC pan. To obtain sufficient amounts of samples, nanoparticles were collected for 11 h before being sealed in the DSC pan with a Tzero Hermetic Lid (TA Instruments). DSC was measured on a DSC Q200 at a nitrogen flow rate of 50 ml/min (TA instruments); the temperature was increased from 40° C. to 85° C. at a rate of 1° C./min and subsequently the sample was cooled to 25° C. at the same rate. To quantify the amount of nanoparticles, thermogravimetry analysis (TGA) was performed on these samples after completing the DSC analysis. For this, the hermetically sealed pans were opened and TGA was performed on these samples by increasing the temperature from 25° C. to 400° C. at a rate of 10° C./min under a N2 flow of 10 ml/min (Q5000, TA instrument). The absolute mass loss was measured between 100° C. and 300° C. and the DSC data was normalized accordingly."}, "[4]": {"details": "spray-dried from ethanol without excipients, 0.28 MPa"}, "[5]": {"details": "spray-dried without excipients, stored under ambient conditions"}},
  "data": [
    {"smiles": "[Cl-].[Na+]", "note": "[NaCl]", "values": [
      {"measurement": "saturation concentration of NaCl in water", "setting": "[1]", "value": 6.3, "unit": "mol/L"}
    ]},
    {"smiles": "Clc1ccccc1C(c1ccccc1)(c1ccccc1)n1ccnc1", "note": "[clotrimazole]", "values": [
      {"measurement": "structure of spray-dried nanoparticles (XRD)", "setting": "[2]; [4]", "value": "amorphous"},
      {"measurement": "crystallization on storage", "setting": "[2]; [5]", "value": "did not crystallize if stored under ambient conditions for at least four weeks"}
    ]},
    {"smiles": "C#C[C@]1(O)CC[C@H]2[C@@H]3CCC4=Cc5oncc5C[C@]4(C)[C@H]3CC[C@@]21C", "note": "[danazol]", "values": [
      {"measurement": "structure of spray-dried nanoparticles (XRD)", "setting": "[2]; co-spray dried with PVP, PVP five times the drug", "value": "XRD-amorphous"},
      {"measurement": "structure of spray-dried nanoparticles (XRD)", "setting": "[2]; co-spray dried with Pluronics F68, F127, P84 or P104, equal weights", "value": "contain a significant fraction of crystalline regions"},
      {"measurement": "crystallization on storage", "setting": "[2]; co-spray dried with equal weight of Pluronics (F68, F127, P84, P104), two weeks under ambient conditions", "value": "this fraction markedly increases after storing the sample for two weeks under ambient conditions"},
      {"measurement": "structure of spray-dried nanoparticles (XRD)", "setting": "[2]; pure drug spray dried onto a PVP matrix", "value": "XRD-amorphous"},
      {"measurement": "structure of spray-dried nanoparticles (XRD)", "setting": "[2]; [4]", "value": "amorphous"},
      {"measurement": "crystallization on storage", "setting": "[2]; [5]", "value": "did not crystallize if stored under ambient conditions for at least four weeks"}
    ]},
    {"smiles": "CC(C)OC(=O)C(C)(C)Oc1ccc(C(=O)c2ccc(Cl)cc2)cc1", "note": "[fenofibrate]", "values": [
      {"measurement": "crystalline fraction from area of the melting peak", "setting": "[3]; 25 nm large particles", "value": 6, "unit": "vol %"},
      {"measurement": "crystalline fraction from area of the melting peak", "setting": "[3]; particles with a diameter of 20 nm", "value": 3, "unit": "vol %"}
    ]}
  ]
}
